Test results taken from article PMC10587126, “Molecular hybridization strategy for tuning bioactive peptide function” (Communications Biology, 2023).

Columns and labels:
A. baumannii ATCC 19606 = experiment: Skin abscess infection mouse model, CFU quantification; type: in vivo, Acinetobacter baumannii (in female CD-1 mice); details: female CD-1 mice, 1 × 10^7 CFU, peptide onto the abscess at MIC
Protocol: (§1) The anti-infective activity of the peptides VmCT1, temporin A, VT, and TV against A. baumannii ATCC 19606 was evaluated as described by Torres et al.[7],[83] Bacteria were grown in tryptic soy broth medium to an optical density of 0.5 at 600 nm. Cells were washed twice with sterile phosphate-buffered saline (pH 7.4, 13,000 rpm for 1 min) and resuspended to a final concentration of 1 × 10^7 CFU/20 μL. To generate the skin infection, female CD-1 mice (6-weeks-old) were first anesthetized with isoflurane and their backs were shaved. Using a needle, a superficial linear abrasion was made on the shaved area of the mice to injure just the stratum corneum and the upper layer of the epidermis. An aliquot of 20 μL containing 1 × 10^7 CFU of A. baumannii was then inoculated over the wound area with a pipette tip. The next day, the infected area was treated with the peptides (i.e., VmCT1, temporin A, VT, and TV), which were administered onto the abscess at their MIC. The animals were euthanized, and the scarified skin area removed 2- and 4-days post-infection. The excised area was homogenized using a bead beater for 20 min (25 Hz) and serially diluted for CFU quantification. Eight mice were used per group (n = 8). All experiments were performed in accordance with protocol 806763 approved by the IACUC at the University of Pennsylvania.

[1] = Mouse body weight in the skin abscess infection model; type: in vivo
Protocol: as §1

polymyxin B
A. baumannii load in the infected skin area (CFU quantification) (A. baumannii ATCC 19606; Day 2, mouse 1 of 8): 2000 | A. baumannii load in the infected skin area (CFU quantification) (A. baumannii ATCC 19606; Day 2, mouse 2 of 8): 4000 | A. baumannii load in the infected skin area (CFU quantification) (A. baumannii ATCC 19606; Day 2, mouse 3 of 8): 8000 | A. baumannii load in the infected skin area (CFU quantification) (A. baumannii ATCC 19606; Day 2, mouse 4 of 8): 8000 | A. baumannii load in the infected skin area (CFU quantification) (A. baumannii ATCC 19606; Day 2, mouse 5 of 8): 8000 | A. baumannii load in the infected skin area (CFU quantification) (A. baumannii ATCC 19606; Day 2, mouse 6 of 8): 4000 | A. baumannii load in the infected skin area (CFU quantification) (A. baumannii ATCC 19606; Day 2, mouse 7 of 8): 4000 | A. baumannii load in the infected skin area (CFU quantification) (A. baumannii ATCC 19606; Day 2, mouse 8 of 8): 2000 | A. baumannii load in the infected skin area (CFU quantification) (A. baumannii ATCC 19606; Day 4, mouse 1 of 8): 2000 | A. baumannii load in the infected skin area (CFU quantification) (A. baumannii ATCC 19606; Day 4, mouse 2 of 8): 2000 | A. baumannii load in the infected skin area (CFU quantification) (A. baumannii ATCC 19606; Day 4, mouse 3 of 8): 2000 | A. baumannii load in the infected skin area (CFU quantification) (A. baumannii ATCC 19606; Day 4, mouse 4 of 8): 2000 | A. baumannii load in the infected skin area (CFU quantification) (A. baumannii ATCC 19606; Day 4, mouse 5 of 8): 4000 | A. baumannii load in the infected skin area (CFU quantification) (A. baumannii ATCC 19606; Day 4, mouse 6 of 8): 8000 | A. baumannii load in the infected skin area (CFU quantification) (A. baumannii ATCC 19606; Day 4, mouse 7 of 8): 4000 | A. baumannii load in the infected skin area (CFU quantification) (A. baumannii ATCC 19606; Day 4, mouse 8 of 8): 2000 | Mouse body weight, normalized to the weight at the beginning of the experiment ([1]; day 0 = 100, Day 1, replicate 1): 90 | Mouse body weight, normalized to the weight at the beginning of the experiment ([1]; day 0 = 100, Day 1, replicate 2): 95 | Mouse body weight, normalized to the weight at the beginning of the experiment ([1]; day 0 = 100, Day 1, replicate 3): 100 | Mouse body weight, normalized to the weight at the beginning of the experiment ([1]; day 0 = 100, Day 2, replicate 1): 90 | Mouse body weight, normalized to the weight at the beginning of the experiment ([1]; day 0 = 100, Day 2, replicate 2): 100 | Mouse body weight, normalized to the weight at the beginning of the experiment ([1]; day 0 = 100, Day 2, replicate 3): 100 | Mouse body weight, normalized to the weight at the beginning of the experiment ([1]; day 0 = 100, Day 3, replicate 1): 90 | Mouse body weight, normalized to the weight at the beginning of the experiment ([1]; day 0 = 100, Day 3, replicate 2): 100 | Mouse body weight, normalized to the weight at the beginning of the experiment ([1]; day 0 = 100, Day 3, replicate 3): 105 | Mouse body weight, normalized to the weight at the beginning of the experiment ([1]; day 0 = 100, Day 4, replicate 1): 95 | Mouse body weight, normalized to the weight at the beginning of the experiment ([1]; day 0 = 100, Day 4, replicate 2): 100 | Mouse body weight, normalized to the weight at the beginning of the experiment ([1]; day 0 = 100, Day 4, replicate 3): 110
